Earlier results, collected in patent US8389024B2, “Abscisic acid against cancer” (priority 2005, dated 2013).
Where two headings read alike, the source gives them in different places.

Tests used:
[1] = tested on: lymphoblastic leukemia, prostate, breast and melanoma human cancer cells
[2] = tested on: leaf discs of V. Faba
[3] = the mentioned concentration (50 mg/ml), Sigma-Aldrich
[4] = tested on: head and neck squamous cell carcinoma; conditions: in vivo
[5] = tested on: nuclear protein Ki67
[6] = tested on: a variety of tumor cells
[7] = tested on: Lemna gibba G1
[8] = tested on: TNFALFA; conditions: human monocytes, murine microglia and murine macrophages
[9] = tested on: HL-60 (promyelocytic leukemia); conditions: HL-60 tumor cells
[10] = tested on: four human cancer cell lines (HELA, DU145, HCT116 AND K562)
[11] = tested on: humans with cancer; conditions: 62 random cases, inconclusive cases not considered; digestive treatment with ABA plus vaccine against P. crytocides
[12] = tested on: stomatal opening; conditions: 10 mcM ABA extracellular application
[13] = tested on: TCA8113 (human oral carcinoma); conditions: TCA8113 cells in vitro
[14] = tested on: DU-145 (prostate cancer); conditions: DU-145 tumor cells
[15] = tested on: human granulocytes
[16] = tested on: C 1498 transplanted tumor with myeloid leukemia; conditions: for rate of survival at the end of 14 days: groups of 10 mice, treated 7 days; for survival: oral
[17] = tested on: human and murine pancreatic beta cells

O=C([O-])c1ccccc1O.[Na+] [SA, sodium salicylate]
proliferation or apoptosis of mammalian cancer cells [1]: can suppress the proliferation or cause apoptosis

CC1=CC(=O)CC(C)(C)[C@@]1(O)/C=C/C(C)=C\C(=O)O [natural ABA (S)]
half-lives (catabolism) [2]: 6 to 8 h

CC/C=C\CC1C(=O)CCC1CC(=O)OC (stereo not drawn) [MJ, methyl jasmonate]
proliferation or apoptosis of mammalian cancer cells [1]: can suppress the proliferation or cause apoptosis

CC1=CC(=O)CC(C)(C)C1(O)/C=C/C(C)=C\C(=O)O (racemic) [(+/−)-Abscisic acid]
appearance of the solution in ethanol [3]: clear to slightly hazy

CC/C=C\C[C@H]1C(=O)CC[C@@H]1CC(=O)O [JA, jasmonic acid]
proliferation or apoptosis of mammalian cancer cells [1]: can suppress the proliferation or cause apoptosis

CC1=CC(=O)CC(C)(C)C1(O)/C=C/C(C)=C\C(=O)O (racemic) [racemic ABA (R)]
half-lives (catabolism) [2]: 30 to 32 h

CC1=C(/C=C/C(C)=C/C=C/C(C)=C\C(=O)O)C(C)(C)CCC1 [ISOTRETINOIN]
effectiveness in chemoprevention trial [4]: not effective

[S-(Z,E)]-5-(1-Hydroxy-2,6,6-trimethyl-4-oxo-2-cyclohexen-1-yl)-3-methyl-2,4-pentadienoic acid [ABA]
nuclear protein Ki67 expressed in proliferating tumor cells [5]: reduced | angiogenesis [6]: inhibit angiogenesis | apoptosis [6]: produce apoptosis | cell cycle and cell division of proliferating tumor cells [6]: make proliferating tumor cells stagnate in S-phase and stop cell division | differentiation of cancer cells [6]: become cancer cells in normal cells | EPD after ABA treatment ([7]; after 15 hours ABA treatment, from −109 mV): −194 mV | potential increase in average (EPD) ([7]; treatment with 10-100 mcm ABA): 85 mV | TNFALFA [8]: increased | changes in morphology of cancer cells [9]: absence of tumor cell nuclear membrane microvilli and presentation of typical apoptosis characteristics | apoptosis [10]: induction of apoptosis | cell cycle progression [10]: changed cell cycle progression | cell proliferation rate [10]: reduced cell proliferation rate | luminescence (indicator of reduced negative surface charge) [10]: reduced luminescence | tumor growth [10]: tumor growth reduction | success rate [11]: around 82% | inhibition of stomatal opening ([12]; pH 6.15): 98% | inhibition of stomatal opening ([12]; pH 8.0): 57% | expression of differentiation and apoptosis markers [13]: expression of RARBETA, involucrin protein and caspase-3 mRNA | changes in morphology of cancer cells [14]: growth in poor condition and nuclear pycnosis | functional activities of human granulocytes [15]: stimulates several functional activities as phagocytosis, reactive oxygen species (ROS) and nitric oxide production, and chemotaxis | rate of survival at the end of 14 days ([16]; Group II, ABA 1 mg/kg (i.p)): 9 survivors | rate of survival at the end of 14 days ([16]; Group III, ABA 10 mg/kg (i.p)): 10 survivors | rate of survival at the end of 14 days ([16]; Group IV, ABA 10 mg/kg (oral)): 6 survivors | rate of survival at the end of 14 days ([16]; Group V, ABA 100 mg/kg (oral)): 9 survivors | survivors ([16]; group number II, 1 mg/kg): 90% | inhibition of the tumor system (C1498) in mice (C57BL/6J) ([16]; mouse, in vivo): marked effect in the inhibition | survival ([16]; dose at 10 mg/kg): 60% | survival ([16]; dose at 100 mg/kg): 90% | insulin secretion [17]: endogenous stimulator of insulin secretion
